Source: patent US4129659A, “Method for improving cardiovascular function with salinomycin” (The University of Miami, priority 1977, dated 1978)
Where two headings read alike, the source gives them in different places.

Key:
[1] = system: heart and coronary circulation of anesthetized dogs; assay: Physiological effects of ionophores in anesthetized dogs: inotropic and coronary flow potency relative to lasalocid; assay type: in vivo, dog
Procedure: Extended experimental studies were conducted involving a number of ionophores.
^1 Studies conducted on anesthetized dogs.
^2 Ionotropic potencies are expressed as the reciprocal of the dose
required to double dP/dt Max., relative to the dose of Lasolocid required
^3 Coronary flow potency is calculated as the inotropic potency,
normalized for coronary flow by the factor: coronary flow increased
produced by doubling dose of the test ionophore/coronary flow produced by
the doubling dose of Lasalocid.

[2] = system: erythrocytes of whole fresh human blood; assay: RBC K+ leak: release of erythrocyte potassium into plasma fraction in vitro; assay type: cell-based; conditions: for Ratio 2/4 (coronary flow potency / RBC K+ leak potency): dog coronary flow vs human RBC K+ leak; for Ratio 2/4 (coronary flow potency / RBC K+ leak potency) / Ratio 1/4 (inotropic potency / RBC K+ leak potency) / RBC K+ Leak Potency (column 4): relative to lasalocid; for Ratio 1/4 (inotropic potency / RBC K+ leak potency): dog inotropy vs human RBC K+ leak; for RBC K+ Leak Potency (column 4): reciprocal of concentration which leaked 15 mM K+/hr from erythrocytes
Procedure: ^4 RBC K^+ leak potency is the reciprocal of the concentration
which leaked 15 mMK^+ /hr. from the erythrocytes of whole fresh human
blood, relative to that of Lasalocid. The reference concentration of
The intrinsic ability of the test ionophores to release cellular potassium was measured using whole human blood and assaying the release of erythrocyte potassium into the plasma fraction in vitro.

[3] = system: heart and coronary circulation of anesthetized dogs; assay: Hemodynamic effects of intravenous salinomycin in anesthetized normal dogs; assay type: in vivo, dog (normal female mongrel dogs); conditions: for Coronary Flow, % of Control / dP/dt, % of Control: Table 1
Procedure: Normal female mongrel dogs, weighing 30-35 lbs., were anesthetized with intravenous sodium pentobarbital (20 mg/kg.) and artificially ventilated. […] The derivative of the left ventricular pressure (dP/dt) was obtained from a Millar micromanometer-tipped catheter after differentiation by an appropriate R-C circuit. The electrocardiogram was monitored from standard leads attached to the extremities of the dog. All parameters were recorded simultaneously and continuously by a multichannel photographer recorder, and were monitored during the experiments by a multichannel oscilloscope.
After all vital parameters had become stable, 0.03 mg/kg of salinomycin in absolute ethanol was administered over a period of 30 seconds to 1 minute. An hour later a larger dose of 0.06 mg/kg was administered to the same dog.
Further information on the hemodynamic effects of salinomycin were obtained in a study involving seven dogs. Using the same procedure set forth hereinabove and after all vital parameters had become stable, 0.075 mg/kg of salinomycin in absolute ethanol was administered over a period of 30 seconds to one minute.

heart = assay: Studies in anesthetized normal and infarcted dogs and isolated guinea pig and rabbit hearts; assay type: in vivo, dog; conditions: in words
intra-cellular Na+ = assay: Intracellular cation exchange (Na+ for K+); conditions: in exchange for K+; in words
[4] = system: skeletal and cardiac muscle; assay: Skeletal and cardiac myopathy upon chronic administration; assay type: in vivo; conditions: in words
Oral LD50 in chickens = conditions: chicken, in vivo, oral administration
Oral LD50 in dogs = conditions: dog, in vivo, oral administration
Solubility in water = assay type: physicochemical; conditions: in words
cardiac muscle = conditions: in words; cited from earlier work
[5] = system: skeletal and cardiac muscle; conditions: prior finding ("it has been shown"); in words; cited from earlier work
[6] = inotropic potency normalized for coronary flow increase at doubling dose, relative to lasalocid, anesthetized dogs
[7] = reciprocal of dose required to double dP/dt Max., relative to lasalocid, anesthetized dogs
[8] = 0.03 mg/kg in absolute ethanol, anesthetized dog
[9] = 0.06 mg/kg, an hour after 0.03 mg/kg, same dog
[10] = 0.075 mg/kg, seven dogs, P <.001
[11] = 0.075 mg/kg, seven dogs, P <.01

Compound: CC[C@@H]1O[C@@H]([C@]2(C)C[C@@H](C)[C@](O)([C@]3(C)CC[C@@H]([C@@H](O)[C@]4(O)O[C@H](C[C@@]5(O)O[C@@H]([C@@H](C)[C@H](O)C[C@H]6CC[C@H](C)[C@@H]([C@@H](C)C(=O)O)O6)CC[C@@H]5C)[C@@H](C)C[C@H]4C)O3)O2)CC[C@@]1(C)O [X-206]
- Coronary Flow Potency [1, 6]: 8.6
- Inotropic Potency [1, 7]: 7.7
- Ratio 2/4 (coronary flow potency / RBC K+ leak potency) [2]: .79
- Ratio 1/4 (inotropic potency / RBC K+ leak potency) [2]: .70
- RBC K+ Leak Potency (column 4) [2]: 10.9

Compound: CC[C@@H](C(=O)[C@@H](C)[C@@H](O)[C@H](C)[C@@H]1O[C@@H]([C@@H](CC)C(=O)O)CC[C@@H]1C)[C@H]1O[C@]2(C=C[C@@H](O)[C@]3(CC[C@@](C)([C@H]4CC[C@](O)(CC)[C@H](C)O4)O3)O2)[C@H](C)C[C@@H]1C [Salinomycin, salinomycin]
- Coronary Flow, % of Control [3, 8]: 175%
- dP/dt, % of Control [3, 8]: 131%
- Coronary Flow, % of Control [3, 9]: 375%
- dP/dt, % of Control [3, 9]: 180%
- Cardiac Output, Mean % Control [3, 10]: 178%
- dP/dt Max., Mean % Control [3, 10]: 204%
- Coronary Flow, Mean % Control [3, 11]: 522%
- Coronary Resistance, Mean % Control [3, 11]: 38%
- Heart Rate, Mean % Control [3, 11]: 113%
- Total Peripheral Resistance, Mean % Control ([3]; 0.075 mg/kg, seven dogs, P <.02): 77%
- Cardiac Output + Salinomycin (mean ± SE) ([3]; 0.075 mg/kg, seven dogs, control 1.83 ± .2, P <.001): 3.2 ± .2 L/min
- Coronary Flow + Salinomycin (mean ± SE) ([3]; 0.075 mg/kg, seven dogs, control 21 ± 4.8, P <.01): 93 ± 19 mL/min
- Heart Rate + Salinomycin (mean ± SE) ([3]; 0.075 mg/kg, seven dogs, control 152 ± 7, P <.01): 170 ± 4 min.^-1
- Coronary Resistance + Salinomycin (mean ± SE) ([3]; 0.075 mg/kg, seven dogs, control 460 ± 98, P <.01): 150 ± 25 dynes sec cm^-5
- dP/dt Max. + Salinomycin (mean ± SE) ([3]; 0.075 mg/kg, seven dogs, control 2340 ± 265, P <.001): 4700 ± 618 mm. Hg sec^-1
- Total Peripheral Resistance + Salinomycin (mean ± SE) ([3]; 0.075 mg/kg, seven dogs, control 4200 ± 600, P <.02): 3200 ± 400 dynes sec cm^-5
- ED (2-fold dP/dt max) ([3]; Canis lupus familiaris, iv, in absolute ethanol, anesthetized dogs, read-out: dose that doubles left ventricular max. dP/dt): 0.075 mg/kg
- cardiovascular effects (inotropic, chronotropic) ([3]; in words): positive inotropic effects with minimal chronotropic effects
- separation between positive inotropy and coronary vasodilation ([1]; compared with other carboxylic ionophores, in words): more pronounced separation between the two principal cardiotonic responses of positive inotropy and coronary vasodilation
- Coronary Flow Potency [1, 6]: 19.6
- Inotropic Potency [1, 7]: 12.1
- pharmacological effect vs potassium release, compared with other carboxylic ionophores ([2]; Table 3, columns 5 and 6, in words): superior to all other carboxylic ionophores examined
- Ratio 2/4 (coronary flow potency / RBC K+ leak potency) [2]: 1.96
- Ratio 1/4 (inotropic potency / RBC K+ leak potency) [2]: 1.21
- RBC K+ Leak Potency (column 4) [2]: 10.0
- effect on cardiac output, coronary flow and myocardial work efficiency (heart): increases in cardiac output, coronary flow and myocardial work efficiency
- effect on coronary arteries (heart): dilates the coronary arteries
- effect on force of myocardial contraction and heart rate (heart): increases the force of myocardial contraction and heart rate
- effect on total peripheral resistance (heart): decreases the total peripheral resistance
- effect on intra-cellular Na+ (intra-cellular Na+): increase in intra-cellular Na^+ in exchange for K^+
- skeletal and cardiac myopathy upon chronic administration [4]: This undesirable effect has not been shown
- LD50 (Oral LD50 in chickens): 125 mg/kg
- LD50 (Oral LD50 in dogs): 10 mg/kg
- solubility in water (Solubility in water): minimal solubility in water

Compound: CO[C@H]1C[C@@H](C[C@H]2O[C@@](O)([C@H](C)C(=O)O)[C@H](C)[C@H](OC)[C@@]2(C)O[C@H]2CC[C@@H](OC)[C@H](C)O2)O[C@]2(O[C@@](C)([C@@H]3CC[C@H]([C@H]4CC[C@H]([C@H]5O[C@](C)(O)[C@H](C)C[C@@H]5C)O4)O3)[C@H](OC)[C@H]2C)[C@@H]1C [Septamycin]
- Inotropic Potency [1, 7]: 2.0

Compound: CC[C@@H](C(=O)[C@@H](C)[C@@H](O)[C@H](C)CCc1ccc(C)c(O)c1C(=O)O)[C@H]1O[C@](CC)([C@H]2CC[C@](O)(CC)[C@H](C)O2)C[C@@H]1C [Lasalocid, lasalocid]
- Coronary Flow Potency [1]: 1.0
- Inotropic Potency [1]: 1.0
- Ratio 2/1 (coronary flow potency / inotropic potency) ([1]; relative to lasalocid, anesthetized dogs): 1.0
- Ratio 2/4 (coronary flow potency / RBC K+ leak potency) [2]: 1.0
- Ratio 1/4 (inotropic potency / RBC K+ leak potency) [2]: 1.0
- concentration which leaked 15 mM K+/hr. from erythrocytes ([2]; human): 11.5 µM
- cardiac effects (prior art) (cardiac muscle): cardiotrophic properties

Compound: Lysocellin
- Inotropic Potency [1, 7]: 1.5
- Ratio 1/4 (inotropic potency / RBC K+ leak potency) [2]: .36
- RBC K+ Leak Potency (column 4) [2]: 4.1

Compound: COC1CCC(OC2C(C)C(O)(C(C)C(=O)O)OC(CC3CC(OC)C(C)C4(O3)OC(C)(C3CCC(C5CCC(C6OC(C)(O)C(C)C(OC)C6C)O5)O3)C(OC)C4C)C2(C)OC)OC1C (stereo not drawn) [A-204]
- coronary flow potency compared with salinomycin ([1]; in words): markedly reduced coronary flow potency than salinomycin
- inotropic potency compared with salinomycin ([1]; in words): slightly higher inotropic potency than salinomycin
- Coronary Flow Potency [1, 6]: 14.1
- Inotropic Potency [1, 7]: 13.1
- Ratio 2/4 (coronary flow potency / RBC K+ leak potency) [2]: .34
- Ratio 1/4 (inotropic potency / RBC K+ leak potency) [2]: .32
- increase in potassium cellular leakage potency compared with salinomycin ([2]; human): 400%
- RBC K+ Leak Potency (column 4) [2]: 41.0
- skeletal and cardiac myopathy upon chronic administration [5]: exhibits the undesirable side effects of skeletal and cardiac myopathy upon chronic administration

Compound: NCCc1ccc(O)c(O)c1 [dopamine]
- cardiac effects (prior art) (cardiac muscle): exerts positive inotropic and chronotropic effects

Compound: CC[C@@]1([C@@H]2O[C@@H]([C@H]3O[C@@](O)(CO)[C@H](C)C[C@@H]3C)C[C@@H]2C)CC[C@H]([C@]2(C)CC[C@]3(C[C@H](O)[C@@H](C)[C@@H]([C@@H](C)[C@@H](OC)[C@H](C)C(=O)O)O3)O2)O1 [Monensin]
- Coronary Flow Potency [1, 6]: 10.0
- Inotropic Potency [1, 7]: 6.1
- Ratio 2/4 (coronary flow potency / RBC K+ leak potency) [2]: 1.4
- Ratio 1/4 (inotropic potency / RBC K+ leak potency) [2]: .84
- RBC K+ Leak Potency (column 4) [2]: 7.2

Compound: COC1CC(CC2CCC(C)C(C(C)C(=O)O)O2)OC2(OC(C)(C3CCC(C)(C4OC(C5OC(O)(CO)C(C)CC5C)CC4C)O3)CC2C)C1C (stereo not drawn) [Nigerlcin]
- Coronary Flow Potency [1, 6]: 3.4
- Inotropic Potency [1, 7]: 2.8
- Ratio 2/4 (coronary flow potency / RBC K+ leak potency) [2]: .21
- Ratio 1/4 (inotropic potency / RBC K+ leak potency) [2]: .17
- RBC K+ Leak Potency (column 4) [2]: 16.4

Compound: CO[C@H]1CC[C@@H](O[C@H]2C[C@H]([C@]3(C)CC[C@]4(C[C@H](O)[C@@H](C)[C@@H]([C@@H](C)/C=C(\C)C(=O)[C@H](C)C[C@H](C)C(=O)O)O4)O3)O[C@]3(O[C@@H]([C@H]4O[C@@](O)(CO)[C@H](C)C[C@@H]4C)C[C@@H]3C)[C@@H]2C)O[C@@H]1C [Dianemycin]
- Coronary Flow Potency [1, 6]: 4.6
- Inotropic Potency [1, 7]: 4.3
- Ratio 2/4 (coronary flow potency / RBC K+ leak potency) [2]: .25
- Ratio 1/4 (inotropic potency / RBC K+ leak potency) [2]: .24
- RBC K+ Leak Potency (column 4) [2]: 18.0
